Reference: patent publication US20260053861A1, “CELL COMPOSITIONS AND METHODS OF USING THE SAME” (THE REGENTS OF THE UNIVERSITY OF CALIFORNIA, priority 2022, published 2026)
Where a name gives a salt, the structure may show the parent alone.

The molecules below were run on hPSC-SCs. Details: not given.

| SMILES | z.score.t |
| --- | --- |
| CC=CC(=O)N(CC)c1ccccc1C [Crotamiton] | −1.426 |
| C[C@@H]1C[C@@H]([C@H](O)CC2CC(=O)NC(=O)C2)C(=O)[C@@H](C)C1 [Cycloheximide] | −2.003 |
| COc1ccccc1N1CCN(CCCCNC(=O)c2ccc3ccccc3c2)CC1.Cl.Cl [DO 897/99] | −0.4139 |
| COc1cccc2c1C(=O)c1c(O)c3c(c(O)c1C2=O)C[C@@](O)(C(C)=O)C[C@@H]3O[C@H]1C[C@H](N)[C@H](O)[C@H](C)O1 [Daunorubicin hydrochloride] | −1.999 |
| CC(=O)N(O)CCCCCNC(=O)CCC(=O)N(O)CCCCCNC(=O)CCC(=O)N(O)CCCCCN [Deferoxamine mesylate] | 0.557 |
| CC(=O)O[C@H]1CC[C@@]2(C)C(=CC[C@@H]3[C@@H]2CC[C@]2(C)C(=O)CC[C@@H]32)C1 [Dehydroisoandosterone 3-acetate] | 0.7349 |
| CCN1C[C@]2(COC)CC[C@H](OC)[C@]34C5C[C@@H]6[C@@H](OC)C[C@@]7(OCO[C@@]7(C13)[C@@H](O)C24)C5[C@H]6OC (stereo partly drawn) [Delcorine] | −0.9741 |
| CCN1C[C@]2(COC)CC[C@H](O)[C@]34C1[C@@](O)([C@@H](OC)[C@H]23)[C@@]1(O)C[C@H](OC)[C@H]2C[C@@H]4[C@@H]1[C@H]2OC [Delsoline] | 1.566 |
| CCN1C[C@]2(C)CC[C@H](OC)[C@@]34C1[C@]1(OCO[C@@]15C[C@H](OC)[C@H]1C[C@]3(O)[C@@H]5[C@H]1OC)[C@@H](OC(C)=O)[C@H]24 [Deltaline] | 0.1693 |
| CN(CCCCCCCCCCN(C)C(=O)Oc1cccc([N+](C)(C)C)c1)C(=O)Oc1cccc([N+](C)(C)C)c1 [Demecarium bromide] | 1.211 |
| C[C@]12CC[C@H]3[C@@H](CCC4=CC(=O)CC[C@@]43C)[C@@H]1CC[C@@H]2C(=O)CO [Deoxycorticosterone] | −1.303 |
| C[C@]12CC[C@H](O)C[C@H]1CC[C@@H]1[C@@H]2CC[C@]2(C)[C@@H](C3=CC(=O)OC3)CC[C@]12O [Digitoxigenin] | −2.008 |
| C[C@H]1O[C@@H](O[C@H]2[C@@H](O)C[C@H](O[C@H]3[C@@H](O)C[C@H](O[C@H]4CC[C@@]5(C)[C@H](CC[C@@H]6[C@@H]5C[C@@H](O)[C@]5(C)[C@@H](C7=CC(=O)OC7)CC[C@]65O)C4)O[C@@H]3C)O[C@@H]2C)C[C@H](O)[C@@H]1O [Digoxin] | −2.04 |

Same assay, conditions: HTS viability of hPSC-SCs in the presence of 30 mM glucose; Prestwick library; Table S4

| SMILES | z.score.t |
| --- | --- |
| COC(=O)[C@H]1[C@H]2C[C@H]3c4[nH]c5ccccc5c4CCN3C[C@@H]2CC[C@@H]1O.Cl [Corynanthine hydrochloride] | 1.095 |
| O=C(O)c1cc(=O)c2c(OCC(O)COc3cccc4oc(C(=O)O)cc(=O)c34)cccc2o1 [Cromolyn disodium salt] | 0.557 |
| CN1CCN(C(c2ccccc2)c2ccccc2)CC1 [Cyclizine hydrochloride] | 0.5437 |
| CN(C)CCC=C1c2ccccc2C=Cc2ccccc21 [Cyclobenzaprine hydrochloride] | −0.1641 |
| NS(=O)(=O)c1cc2c(cc1Cl)NC(CC1CCCC1)NS2(=O)=O (stereo not drawn) [Cyclopenthiazide] | 2.573 |
| CN(C)CCOC(=O)C(c1ccccc1)C1(O)CCCC1 (stereo not drawn) [Cyclopentolate hydrochloride] | −0.5614 |
| CN1CCC(=C2c3ccccc3C=Cc3ccccc32)CC1 [Cyproheptadine hydrochloride] | 0.4486 |
| CC(=O)O[C@]1(C(C)=O)CC[C@H]2[C@@H]3C=C(Cl)C4=CC(=O)[C@@H]5C[C@@H]5[C@]4(C)[C@H]3CC[C@@]21C [Cyproterone acetate] | −0.5219 |
| N[C@@H]1CONC1=O [D-cycloserine] | 0.9162 |
| CN(C)/N=N/c1[nH]cnc1C(N)=O [Dacarbazine] | −0.6301 |
| C#C[C@]1(O)CC[C@H]2[C@@H]3CCC4=Cc5oncc5C[C@]4(C)[C@H]3CC[C@@]21C [Danazol] | 0.1149 |
| O=C1CN(/N=C/c2ccc(-c3ccc([N+](=O)[O-])cc3)o2)C(O)=N1 [Dantrolene sodium salt] | 1.306 |
| Nc1ccc(S(=O)(=O)c2ccc(N)cc2)cc1 [Dapsone] | 1.024 |
| N=C(N)N1CCc2ccccc2C1 [Debrisoquin sulfate] | 0.6578 |
| C[N+](C)(C)CCCCCCCCCC[N+](C)(C)C [Decamethonium bromide] | −1.558 |
| C[C@H](CCC(=O)O)[C@H]1CC[C@H]2[C@@H]3C(=O)C[C@@H]4CC(=O)CC[C@]4(C)[C@H]3CC(=O)[C@]12C [Dehydrocholic acid] | 1.472 |
| CN(C)[C@@H]1C(O)=C(C(N)=O)C(=O)[C@@]2(O)C(O)=C3C(=O)c4c(O)ccc(Cl)c4[C@@H](O)[C@H]3C[C@@H]12 [Demeclocycline hydrochloride] | 0.4318 |
| CC[N+](CC)(CC(=O)Nc1c(C)cccc1C)Cc1ccccc1 [Denatonium benzoate] | −1.472 |
| Cc1cc(N)c2ccccc2[n+]1CCCCCCCCCC[n+]1c(C)cc(N)c2ccccc21 [Dequalinium dichloride] | 0.5046 |

| SMILES | z.score.t |
| --- | --- |
| CNCCCN1c2ccccc2CCc2ccccc21 [Desipramine hydrochloride] | −1.014 |
| CC(=O)OCC(=O)[C@@]1(O)[C@H](C)C[C@H]2[C@@H]3CCC4=CC(=O)C=C[C@]4(C)[C@@]3(F)[C@@H](O)C[C@@]21C [Dexamethasone acetate] | 0.4486 |
| CC1=NS(=O)(=O)c2cc(Cl)ccc2N1 [Diazoxide] | 0.4626 |
| CCCCOc1cc(C(=O)NCCN(CC)CC)c2ccccc2n1 [Dibucaine] | −1.214 |
| NS(=O)(=O)c1cc(Cl)c(Cl)c(S(N)(=O)=O)c1 [Dichlorphenamide] | −0.8317 |
| O=C(O)Cc1ccccc1Nc1c(Cl)cccc1Cl [Diclofenac sodium] | 0.563 |
| Cc1onc(-c2c(Cl)cccc2Cl)c1C(=O)N[C@@H]1C(=O)N2[C@@H]1SC(C)(C)[C@@H]2C(=O)O [Dicloxacillin sodium salt] | 1.942 |
| O=c1oc2ccccc2c(O)c1Cc1c(O)c2ccccc2oc1=O [Dicumarol] | −0.3242 |
| CCN(CC)CCOC(=O)C1(C2CCCCC2)CCCCC1 [Dicyclomine hydrochloride] | −0.2865 |
| O=c1[nH]cnc2c1ncn2[C@H]1CC[C@@H](CO)O1 [Didanosine] | −0.07933 |
| C/C=C(/C(=C/C)c1ccc(O)cc1)c1ccc(O)cc1 [Dienestrol] | −1.123 |
| CCN(CC)C(=O)N1CCN(C)CC1 [Diethylcarbamazine citrate] | 0.378 |
| CC/C(=C(/CC)c1ccc(O)cc1)c1ccc(O)cc1 [Diethylstilbestrol] | 1.624 |
| CC(=O)OCC(=O)[C@@]1(OC(C)=O)[C@@H](C)C[C@H]2[C@@H]3C[C@H](F)C4=CC(=O)C=C[C@]4(C)[C@@]3(F)[C@@H](O)C[C@@]21C [Diflorasone Diacetate] | 1.72 |
| O=C(O)c1cc(-c2ccc(F)cc2F)ccc1O [Diflunisal] | 0.7162 |
| C[C@]12CC[C@H](O)C[C@H]1CC[C@@H]1[C@@H]2C[C@@H](O)[C@]2(C)[C@@H](C3=CC(=O)OC3)CC[C@]12O [Digoxigenin] | −2.387 |
| CC(C)[C@@]1(NC(=O)[C@@H]2C[C@@H]3c4cccc5[nH]cc(c45)C[C@H]3N(C)C2)O[C@@]2(O)[C@@H]3CCCN3C(=O)[C@H](Cc3ccccc3)N2C1=O [Dihydroergocristine mesylate] | −0.3319 |
| CN[C@@H]1[C@H](O[C@H]2[C@H](O[C@H]3[C@H](O)[C@@H](O)[C@H](NC(=N)N)[C@@H](O)[C@@H]3NC(=N)N)O[C@@H](C)[C@]2(O)CO)O[C@@H](CO)[C@H](O)[C@H]1O [Dihydrostreptomycin sulfate] | −0.359 |
| COc1cc(C(=O)OCCCN2CCCN(CCCOC(=O)c3cc(OC)c(OC)c(OC)c3)CC2)cc(OC)c1OC [Dilazep dihydrochloride] | −1.444 |

| SMILES | z.score.t |
| --- | --- |
| CN(C(=O)C(Cl)Cl)c1ccc(OC(=O)c2ccco2)cc1 [Diloxanide furoate] | 1.069 |
| COc1ccc([C@@H]2Sc3ccccc3N(CCN(C)C)C(=O)[C@@H]2OC(C)=O)cc1 [Diltiazem hydrochloride] | 0.6906 |
| CN(C)CCCSC(=N)N [Dimaprit dihydrochloride] | 1.918 |
| CN(C)CCOC(c1ccccc1)c1ccccc1.Cn1c(=O)c2[nH]c(Cl)nc2n(C)c1=O [Dimenhydrinate] | 0.08508 |
| CC1(C)OC(=O)NC1=O [Dimethadione] | −0.03362 |
| CCCCc1cc2ccccc2c(OCCN(C)C)n1 [Dimethisoquin hydrochloride] | 0.04918 |
| CCCCC[C@H](O)/C=C/[C@@H]1[C@@H](C/C=C\CCCC(=O)O)[C@@H](O)C[C@H]1O [Dinoprost trometamol] | 1.789 |
| COc1ccc(C(=O)c2ccccc2O)c(O)c1 [Dioxybenzone] | −0.2359 |
| O=C(Nc1ccccc1)OCC(CN1CCCCC1)OC(=O)Nc1ccccc1 (stereo not drawn) [Diperodon hydrochloride] | −0.7776 |
| C[N+]1(C)CCC(=C(c2ccccc2)c2ccccc2)CC1 [Diphemanil methylsulfate] | 0.05523 |
| CN(C)CCOC(c1ccccc1)c1ccccc1 [Diphenhydramine hydrochloride] | −0.5689 |
| OC(CCCN1CCCCC1)(c1ccccc1)c1ccccc1 [Diphenidol hydrochloride] | 0.9906 |
| CN1CCC(OC(c2ccccc2)c2ccccc2)CC1 [Diphenylpyraline hydrochloride] | −0.7376 |
| CNCC(O)c1ccc(OC(=O)C(C)(C)C)c(OC(=O)C(C)(C)C)c1 (stereo not drawn) [Dipivefrin hydrochloride] | −1.319 |
| Cn1c(=O)c2c(ncn2CC(O)CO)n(C)c1=O (stereo not drawn) [Diprophylline] | 0.7415 |
| OCCN(CCO)c1nc(N2CCCCC2)c2nc(N(CCO)CCO)nc(N3CCCCC3)c2n1 [Dipyridamole] | −0.8392 |
| Cc1c(N(C)CS(=O)(=O)[O-])c(=O)n(-c2ccccc2)n1C.[Na+] [Dipyrone] | −1.008 |
| CC[C@H]1OC(=O)[C@H](C)[C@@H](O[C@H]2C[C@@](C)(OC)[C@@H](O)[C@H](C)O2)[C@H](C)[C@@H](O[C@@H]2O[C@H](C)C[C@H](N(C)C)[C@H]2O)[C@](C)(O)C[C@@H](C)[C@@H]2N[C@@H](COCCOC)O[C@H]([C@H]2C)[C@]1(C)O [Dirithromycin] | 0.3231 |
